Experimental data: patent US8507485B2, “Cyclic compound having pyrimidinylalkylthio group” (Santen Pharmaceutical Co., Ltd., priority 2005, dated 2013)

tested on: HUVEC (human umbilical vein endothelial cells), VEGF-induced proliferation; test: Cell proliferation inhibitory action test using a VEGF-induced HUVEC proliferation reaction evaluation system; assay type: cell-based; details: 20 μg/mL test compound solution, 5 μL per well, WST-8 three days after VEGF addition, absorbance at 450 nm, control 1.0% DMSO
Description: In order to find the usefulness of the compound of the present invention, a test for inhibitory effects of the compound of the present invention on cell proliferation was carried out using a VEGF-induced HUVEC proliferation reaction evaluation system (HUVEC: human umbilical vein endothelial cells), which is a method of evaluating antiangiogenic effects of drugs, and the antiangiogenic effects of the compounds were evaluated.
As one of the widely used methods of evaluating antiangiogenic effects of drugs, a cell proliferation inhibitory action test using a VEGF-induced HUVEC proliferation reaction evaluation system has been reported in Cancer Res., 59, 99-106 (1999). According to the method described in the above-mentioned document, a cell proliferation inhibitory action test of the compound of the present invention was carried out, and the cell proliferation inhibition rate was calculated. Then, the antiangiogenic effect of each of the compound of the present invention was evaluated using the obtained rate as an index.
(Preparation of Test Compound Solution)
Each test compound was dissolved in dimethyl sulfoxide (hereinafter abbreviated as DMSO), and the obtained solution was diluted with a commercially available phosphate buffer solution (hereinafter abbreviated as PBS), whereby a 20 μg/mL test compound solution was prepared.
(Preparation of HUVEC Suspension)
HUVEC was suspended in F12K medium containing 0.5% fetal bovine serum (hereinafter abbreviated as FBS), whereby a 2×10^4 cells/mL HUVEC suspension was prepared.
(Preparation of VEGF Solution)
VEGF was dissolved in PBS containing 0.1% bovine serum albumin, and the obtained solution was diluted with F12K medium containing 0.5% FBS, whereby a 400 ng/mL VEGF solution was prepared.
(Test Method and Measurement Method)
1) The HUVEC suspension was inoculated in an amount of 100 μL into each well of a 96-well plate coated with type I collagen (2×10^3 cells per well).
2) One day after the inoculation, the test compound solution was added in an amount of 5 μL per well.
3) One hour after the addition of the test compound solution, the VEGF solution was added in an amount of 5 μL per well.
4) Three days after the addition of the VEGF solution, WST-8 assay reagent (Dojin Chemical Co., Ltd.) was added in an amount of 10 μL per well.
5) After 3 hours, the above-mentioned plate was attached to an absorptiometer (Multilabel Counter ARVO), and an absorbance at 450 nm of suspension in each well (hereinafter referred to as a test compound suspension) was measured.
6) A test was carried out in the same manner as in the above 1) to 5) except that 1.0% DMSO was used instead of the test compound solution. The result was used as a control.
Incubation was carried out under conditions of 37° C., 5% carbon dioxide and […] in an incubator throughout the above-mentioned test steps.
(Calculation of Cell Proliferation Inhibition Rate)
The cell proliferation inhibition rate (%), which was used as an index of an antiangiogenic effect, was calculated using the following calculation equation. Cell proliferation inhibition rate (%)=100−{(Absorbance of test compound suspension−A)/(absorbance of control−A)}×100 (Calculation Equation) A: Absorbance of only cell suspension (cells+medium) (Test Results and Discussion)

Row | Compound | Cell proliferation inhibition rate (%)
1 | O=C(Nc1cccc(C(F)(F)F)c1)c1cccnc1SCc1ccnc(N2CCNCC2)n1 [Compound 4-36, 2-[2-(piperazin-1-yl)pyrimidin-4-ylmethylthio]-N-(3-trifluorophenyl)pyridine-3-carboxamide] | 100
2 | Cc1cc(C)cc(NC(=O)c2sccc2SCc2ccnc(N)n2)c1 [Compound 1-20, 3-(2-Aminopyrimidin-4-ylmethylthio)-N-(3,5-dimethylphenyl) thiophene-2-carboxamide] | 100

same assay, conditions: Homo sapiens, 72 h, 20 μg/mL test compound solution, 5 μL per well, WST-8 three days after VEGF addition, absorbance at 450 nm, control 1.0% DMSO, read-out: Cell proliferation inhibition rate (%)

Row | Compound | inhibition at 20 µg/mL (stock) [%]
3 | Cc1cc(C)cc(NC(=O)c2cccnc2SCc2ccnc(N)n2)c1 [Compound 1-1, 2-(2-Aminopyrimidin-4-ylmethylthio)-N-(3,5-dimethylphenyl)pyridine-3-carboxamide] | 96
4 | Cc1cc(C)cc(NC(=O)c2cccnc2SCc2ccnc(NC3CC3)n2)c1 [Compound 4-1, 2-(2-Cyclopropylaminopyrimidin-4-ylmethylthio)-N-(3,5-dimethylphenyl)pyridine-3-carboxamide] | 100
5 | CC(=O)Nc1nccc(CSc2ncccc2C(=O)Nc2ccc(Cl)cc2)n1 [Compound 2-2, 2-(2-Acetylaminopyrimidin-4-ylmethylthio)-N-(4-chlorophenyl)pyridine-3-carboxamide] | 97
6 | CC(C)c1cccc(NC(=O)c2cccnc2SCc2ccnc(N)n2)c1 [Compound 1-7, 2-(2-Aminopyrimidin-4-ylmethylthio)-N-(3-isopropylphenyl)pyridine-3-carboxamide] | 96
7 | Cc1cc(C)cc(NC(=O)c2cccnc2SCc2ccncn2)c1 [Compound 1-22, N-(3,5-Dimethylphenyl)-2-(pyrimidin-4-ylmethylthio)pyridine-3-carboxamide] | 100
8 | Cc1cc(C)cc(NC(=O)c2ccccc2SCc2ccnc(N)n2)c1 [Compound 1-16, 2-(2-Aminopyrimidin-4-ylmethylthio)-N-(3,5-dimethylphenyl)benzamide] | 100
9 | CCOCCNc1nccc(CSc2ncccc2C(=O)Nc2ccc(OC(F)(F)F)cc2)n1 [Compound 4-22, 2-[2-(2-Ethoxyethyl)aminopyrimidin-4-ylmethylthio]-N-(4-trifluoromethoxyphenyl)pyridine-3-carboxamide] | 100
10 | CSc1nccc(CSc2ncccc2C(=O)Nc2cc(C)cc(C)c2)n1 [Compound 1-26, N-(3,5-Dimethylphenyl)-2-(2-methylthiopyrimidin-4-ylmethylthio)pyridine-3-carboxamide] | 100
11 | CC(=O)N(C(C)=O)c1nccc(CSc2ncccc2C(=O)Nc2cc(C)cc(C)c2)n1 [Compound 3-1, 2-(2-Diacetylaminopyrimidin-4-ylmethylthio)-N-(3,5-dimethylphenyl)pyridine-3-carboxamide] | 100
12 | CC(=O)Nc1nccc(CSc2ncccc2C(=O)Nc2cc(C)cc(C)c2)n1 [Compound 2-1, 2-(2-Acetylaminopyrimidin-4-ylmethylthio)-N-(3,5-dimethylphenyl)pyridine-3-carboxamide] | 100
13 | Nc1nccc(CSc2ncccc2C(=O)Nc2cc3ccccc3cn2)n1 [Compound 1-12, 2-(2-Aminopyrimidin-4-ylmethylthio)-N-(isoquinolin-3-yl)pyridine-3-carboxamide] | 84
14 | CNc1nccc(CSc2ncccc2C(=O)Nc2cc(C)cc(C)c2)n1 [Compound 1-33, N-(3,5-Dimethylphenyl)-2-(2-methylaminopyrimidin-4-ylmethylthio)pyridine-3-carboxamide] | 100
15 | Cc1cc(C)cc(NC(=O)c2cccnc2SCc2ccnc(NCCO)n2)c1 [Compound 4-19, N-(3,5-Dimethylphenyl)-2-[2-(2-hydroxyethyl)aminopyrimidin-4-ylmethylthio]pyridine-3-carboxamide] | 100
16 | Cc1cc(C)cc(NC(=O)c2cccnc2SCc2ccnc(N3CCN(CCO)CC3)n2)c1 [Compound 4-25, N-(3,5-Dimethylphenyl)-2-[2-(4-(2-hydroxyethyl)piperazin-1-yl)pyrimidin-4-ylmethylthio]pyridine-3-carboxamide] | 100
17 | CC(=O)Nc1nccc(CSc2ncccc2C(=O)Nc2ccc3c(c2)CCC3)n1 [Compound 2-4, 2-(2-Acetylaminopyrimidin-4-ylmethylthio)-N-(indan-5-yl)pyridine-3-carboxamide] | 99
18 | Cc1cc(C)cc(NC(=O)c2cccnc2SCc2ccnc(N3CCOCC3)n2)c1 [Compound 4-4, N-(3,5-Dimethylphenyl)-2-(2-morpholinopyrimidin-4-ylmethylthio)pyridine-3-carboxamide] | 100
19 | O=C(Nc1cccc(C(F)(F)F)c1)c1cccnc1SCc1ccnc(NC2CC2)n1 [Compound 4-9, 2-(2-Cyclopropylaminopyrimidin-4-ylmethylthio)-N-(3-trifluoromethylphenyl)pyridine-3-carboxamide] | 100
20 | O=C(Nc1ccc(OC(F)(F)F)cc1)c1cccnc1SCc1ccnc(NC2CC2)n1 [Compound 4-6, 2-(2-Cyclopropylaminopyrimidin-4-ylmethylthio)-N-(4-trifluoromethoxyphenyl)pyridine-3-carboxamide] | 100
